Converted amounts (≈) assume the structure as drawn.
Tests used:
[1] = Plasma concentration in rat at 1 mg/kg, po measured after 3 hrs; format: ADME, organism-based
[2] = Plasma concentration in rat at 10 mg/kg, po measured after 3 hrs; format: ADME, organism-based
[3] = test system: Rattus norvegicus; experiment: Analgesic activity in rat model of partial sciatic nerve ligation-induced neuropathic pain assessed as reversal of allodynia at 3 mg/kg, po measured after 3 hrs relative to control; format: functional
[4] = test system: Rattus norvegicus; experiment: Analgesic activity in rat model of partial sciatic nerve ligation-induced neuropathic pain assessed as reversal of allodynia at 10 mg/kg, po measured after 3 hrs relative to control; format: functional
[5] = test system: Rattus norvegicus; experiment: Analgesic activity in rat model of partial sciatic nerve ligation-induced neuropathic pain assessed as reversal of allodynia at 1 mg/kg, po measured after 3 hrs relative to control; format: functional
[6] = Plasma concentration in rat at 3 mg/kg, po measured after 3 hrs; format: ADME, organism-based
[7] = target: T1, P2X purinoceptor 3 (Rattus norvegicus, UniProt P49654); experiment: Antagonist activity at rat P2X3 receptor
T1 sequence (P49654 whole entry): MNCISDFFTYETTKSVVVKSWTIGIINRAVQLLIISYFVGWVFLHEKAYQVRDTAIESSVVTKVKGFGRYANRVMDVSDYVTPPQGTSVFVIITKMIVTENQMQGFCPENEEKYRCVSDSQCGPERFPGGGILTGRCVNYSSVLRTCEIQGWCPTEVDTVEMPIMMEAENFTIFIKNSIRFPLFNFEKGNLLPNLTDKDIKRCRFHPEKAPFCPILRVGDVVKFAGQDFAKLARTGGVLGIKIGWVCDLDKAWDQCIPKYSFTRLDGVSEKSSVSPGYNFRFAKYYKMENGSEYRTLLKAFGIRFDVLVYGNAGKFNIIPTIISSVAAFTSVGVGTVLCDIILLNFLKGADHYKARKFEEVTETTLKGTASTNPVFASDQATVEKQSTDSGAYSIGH

[8] = Half life in rat at 1 mg/kg, iv; format: ADME, organism-based; settings: in vivo
[9] = Clearance in rat at 1 mg/kg, iv; format: ADME, organism-based; settings: in vivo
[10] = target: Cytochrome P450 2C19 (Homo sapiens, UniProt P33261); experiment: Inhibition of CYP2C19 (unknown origin); format: ADME
Sequence of Cytochrome P450 2C19 (P33261 whole entry): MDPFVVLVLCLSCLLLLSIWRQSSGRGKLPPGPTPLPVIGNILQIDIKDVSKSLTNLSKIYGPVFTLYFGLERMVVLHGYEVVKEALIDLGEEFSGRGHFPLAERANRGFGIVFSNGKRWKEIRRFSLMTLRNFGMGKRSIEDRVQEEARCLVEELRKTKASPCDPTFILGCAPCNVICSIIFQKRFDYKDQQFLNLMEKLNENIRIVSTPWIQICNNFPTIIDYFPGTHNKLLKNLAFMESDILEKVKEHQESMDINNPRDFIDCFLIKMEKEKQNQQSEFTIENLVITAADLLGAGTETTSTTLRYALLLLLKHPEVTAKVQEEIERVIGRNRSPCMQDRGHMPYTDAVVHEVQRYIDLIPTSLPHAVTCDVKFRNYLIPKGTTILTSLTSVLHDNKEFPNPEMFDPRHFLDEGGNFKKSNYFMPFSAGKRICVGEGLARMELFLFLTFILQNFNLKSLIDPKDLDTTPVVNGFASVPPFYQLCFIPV

[11] = Oral bioavailability in rat at 1 mg/kg administered as cassette dose; format: ADME, organism-based; settings: in vivo
[12] = Protein binding in rat plasma assessed as unbound fraction at 3 mg/kg, iv; format: ADME, organism-based
[13] = target: T2, P2X purinoceptor 7 (Homo sapiens, UniProt Q99572); experiment: Antagonist activity at P2X7 receptor (unknown origin)
T2 sequence (Q99572 whole entry): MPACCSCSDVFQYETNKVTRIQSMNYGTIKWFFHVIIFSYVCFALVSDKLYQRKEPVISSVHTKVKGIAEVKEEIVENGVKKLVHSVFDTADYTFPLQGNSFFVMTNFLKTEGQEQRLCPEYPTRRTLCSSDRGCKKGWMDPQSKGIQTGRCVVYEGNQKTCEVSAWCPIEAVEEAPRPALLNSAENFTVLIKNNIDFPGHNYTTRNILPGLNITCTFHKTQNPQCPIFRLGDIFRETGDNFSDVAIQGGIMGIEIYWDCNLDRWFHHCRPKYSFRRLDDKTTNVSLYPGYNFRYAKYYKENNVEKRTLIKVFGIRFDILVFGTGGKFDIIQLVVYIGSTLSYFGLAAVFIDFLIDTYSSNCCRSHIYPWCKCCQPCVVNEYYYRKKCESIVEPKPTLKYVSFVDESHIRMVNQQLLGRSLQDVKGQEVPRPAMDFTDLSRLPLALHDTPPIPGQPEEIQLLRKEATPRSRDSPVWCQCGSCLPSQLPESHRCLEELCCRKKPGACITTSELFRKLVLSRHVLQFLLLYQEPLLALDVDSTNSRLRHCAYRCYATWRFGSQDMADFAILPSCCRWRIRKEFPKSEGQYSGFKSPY

[14] = Free plasma concentration in rat plasma at 1 mg/kg administered as cassette dose; format: ADME, organism-based; settings: in vivo
[15] = AUC in rat at 3 mg/kg, po; format: ADME, organism-based; design: dose 3 mg/kg; settings: in vivo
[16] = target: T3, Cytochrome P450 1A2 (Homo sapiens, UniProt P05177); experiment: Inhibition of CYP1A2 (unknown origin); format: ADME
T3 sequence (P05177 whole entry): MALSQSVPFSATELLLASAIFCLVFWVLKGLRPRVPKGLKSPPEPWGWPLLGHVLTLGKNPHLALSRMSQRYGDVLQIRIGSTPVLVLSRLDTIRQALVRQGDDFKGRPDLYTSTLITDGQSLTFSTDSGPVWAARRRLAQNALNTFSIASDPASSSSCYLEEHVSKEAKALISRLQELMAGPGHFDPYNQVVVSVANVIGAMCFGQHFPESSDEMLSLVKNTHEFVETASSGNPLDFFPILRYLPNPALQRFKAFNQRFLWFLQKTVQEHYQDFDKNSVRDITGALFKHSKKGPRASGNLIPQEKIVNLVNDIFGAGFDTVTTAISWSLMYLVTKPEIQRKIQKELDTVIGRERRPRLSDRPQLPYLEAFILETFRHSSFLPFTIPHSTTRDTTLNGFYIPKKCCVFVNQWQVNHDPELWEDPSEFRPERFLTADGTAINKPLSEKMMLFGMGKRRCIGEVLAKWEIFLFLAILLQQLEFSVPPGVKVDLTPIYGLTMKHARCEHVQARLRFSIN

[17] = target: Cytochrome P450 2D6 (Homo sapiens, UniProt P10635); experiment: Inhibition of CYP2D6 (unknown origin); format: functional
Sequence of Cytochrome P450 2D6 (P10635 whole entry): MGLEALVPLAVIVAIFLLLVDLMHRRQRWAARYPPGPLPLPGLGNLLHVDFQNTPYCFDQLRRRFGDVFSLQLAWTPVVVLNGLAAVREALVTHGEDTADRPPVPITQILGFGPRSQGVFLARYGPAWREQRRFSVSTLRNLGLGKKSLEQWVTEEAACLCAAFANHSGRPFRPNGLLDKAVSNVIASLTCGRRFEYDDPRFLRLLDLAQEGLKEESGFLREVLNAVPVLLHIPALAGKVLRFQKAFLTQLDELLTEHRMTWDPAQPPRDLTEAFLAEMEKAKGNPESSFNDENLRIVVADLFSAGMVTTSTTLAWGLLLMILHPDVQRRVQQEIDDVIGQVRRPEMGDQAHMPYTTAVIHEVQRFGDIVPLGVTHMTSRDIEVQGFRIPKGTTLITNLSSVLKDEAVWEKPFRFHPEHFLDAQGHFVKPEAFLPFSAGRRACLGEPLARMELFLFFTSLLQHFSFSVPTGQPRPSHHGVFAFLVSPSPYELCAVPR

[18] = Cmax in rat at 3 mg/kg, po; format: ADME, organism-based; design: route oral, dose 3 mg/kg; settings: in vivo
[19] = target: Cytochrome P450 3A4 (Homo sapiens, UniProt P08684); experiment: Inhibition of CYP3A4 (unknown origin); format: ADME
Sequence of Cytochrome P450 3A4 (P08684 whole entry): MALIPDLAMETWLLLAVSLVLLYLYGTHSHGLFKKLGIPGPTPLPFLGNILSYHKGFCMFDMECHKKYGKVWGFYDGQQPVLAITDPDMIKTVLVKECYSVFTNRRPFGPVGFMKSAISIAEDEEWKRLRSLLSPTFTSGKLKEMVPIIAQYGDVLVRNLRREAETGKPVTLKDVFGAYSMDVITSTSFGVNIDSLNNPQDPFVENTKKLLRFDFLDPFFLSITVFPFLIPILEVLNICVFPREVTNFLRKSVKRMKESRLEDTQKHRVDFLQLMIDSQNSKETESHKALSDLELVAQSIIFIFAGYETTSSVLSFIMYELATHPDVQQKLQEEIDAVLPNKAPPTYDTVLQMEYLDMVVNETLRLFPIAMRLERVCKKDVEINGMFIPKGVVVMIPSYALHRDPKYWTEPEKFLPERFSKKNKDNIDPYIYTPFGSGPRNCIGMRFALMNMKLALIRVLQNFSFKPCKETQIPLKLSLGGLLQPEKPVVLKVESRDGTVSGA

[20] = Solubility of the compound in JP2 fluid at pH 6.8; format: physicochemical
[21] = Protein binding in rat plasma assessed as unbound fraction at 1 mg/kg administered as cassette dose; format: ADME, organism-based
[22] = target: T4, P2X purinoceptor 4 (Homo sapiens, UniProt Q99571); experiment: Antagonist activity at P2X4 receptor (unknown origin)
T4 sequence (Q99571 whole entry): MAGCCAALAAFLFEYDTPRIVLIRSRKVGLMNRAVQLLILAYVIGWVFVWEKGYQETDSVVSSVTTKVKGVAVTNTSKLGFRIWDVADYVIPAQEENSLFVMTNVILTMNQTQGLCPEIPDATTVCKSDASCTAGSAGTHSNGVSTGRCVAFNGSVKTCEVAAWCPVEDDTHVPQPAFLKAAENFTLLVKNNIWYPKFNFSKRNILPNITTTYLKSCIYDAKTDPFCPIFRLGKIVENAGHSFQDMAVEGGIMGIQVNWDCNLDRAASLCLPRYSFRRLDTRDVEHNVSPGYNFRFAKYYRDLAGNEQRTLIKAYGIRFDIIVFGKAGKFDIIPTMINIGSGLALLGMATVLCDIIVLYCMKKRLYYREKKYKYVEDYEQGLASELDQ

[23] = target: T5, P2X purinoceptor 2 (Homo sapiens, UniProt Q9UBL9); experiment: Antagonist activity at P2X2 receptor (unknown origin)
T5 sequence (Q9UBL9 whole entry): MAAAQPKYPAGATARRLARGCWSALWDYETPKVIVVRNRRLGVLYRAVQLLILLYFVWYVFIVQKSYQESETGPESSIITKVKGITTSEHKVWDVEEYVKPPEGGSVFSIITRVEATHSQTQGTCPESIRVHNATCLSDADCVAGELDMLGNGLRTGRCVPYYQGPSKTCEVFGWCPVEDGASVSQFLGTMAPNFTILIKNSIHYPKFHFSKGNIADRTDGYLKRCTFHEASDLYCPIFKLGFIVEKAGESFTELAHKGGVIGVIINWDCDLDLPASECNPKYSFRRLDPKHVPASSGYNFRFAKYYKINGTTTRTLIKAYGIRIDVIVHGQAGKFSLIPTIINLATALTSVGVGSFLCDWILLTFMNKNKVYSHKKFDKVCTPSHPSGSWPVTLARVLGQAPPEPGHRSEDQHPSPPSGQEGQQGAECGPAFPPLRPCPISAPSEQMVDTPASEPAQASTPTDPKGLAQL

[24] = target: Cytochrome P450 2C9 (Homo sapiens, UniProt P11712); experiment: Inhibition of CYP2C9 (unknown origin); format: ADME
Sequence of Cytochrome P450 2C9 (P11712 whole entry): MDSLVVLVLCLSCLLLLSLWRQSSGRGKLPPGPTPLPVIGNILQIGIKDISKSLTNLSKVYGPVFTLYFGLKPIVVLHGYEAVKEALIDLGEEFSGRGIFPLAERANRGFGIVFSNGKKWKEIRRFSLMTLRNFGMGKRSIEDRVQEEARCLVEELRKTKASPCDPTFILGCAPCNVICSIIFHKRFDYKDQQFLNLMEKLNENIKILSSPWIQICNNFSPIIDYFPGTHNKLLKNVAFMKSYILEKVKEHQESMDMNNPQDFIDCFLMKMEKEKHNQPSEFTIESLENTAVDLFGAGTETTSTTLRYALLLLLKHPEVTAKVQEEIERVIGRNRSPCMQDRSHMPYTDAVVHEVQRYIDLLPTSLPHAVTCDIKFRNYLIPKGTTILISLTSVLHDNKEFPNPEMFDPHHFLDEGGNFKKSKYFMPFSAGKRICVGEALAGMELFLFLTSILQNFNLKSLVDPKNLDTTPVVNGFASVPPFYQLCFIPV

[25] = test system: Rattus norvegicus; experiment: Analgesic activity in po dosed rat model of partial sciatic nerve ligation-induced neuropathic pain; format: functional
[26] = Solubility of the compound in pH 1.2 JP1 fluid; format: physicochemical
[27] = Oral bioavailability in rat at 3 mg/kg; format: ADME, organism-based; settings: in vivo
[28] = target: T6, P2X purinoceptor 1 (Homo sapiens, UniProt P51575); experiment: Antagonist activity at P2X1 receptor (unknown origin)
T6 sequence (P51575 whole entry): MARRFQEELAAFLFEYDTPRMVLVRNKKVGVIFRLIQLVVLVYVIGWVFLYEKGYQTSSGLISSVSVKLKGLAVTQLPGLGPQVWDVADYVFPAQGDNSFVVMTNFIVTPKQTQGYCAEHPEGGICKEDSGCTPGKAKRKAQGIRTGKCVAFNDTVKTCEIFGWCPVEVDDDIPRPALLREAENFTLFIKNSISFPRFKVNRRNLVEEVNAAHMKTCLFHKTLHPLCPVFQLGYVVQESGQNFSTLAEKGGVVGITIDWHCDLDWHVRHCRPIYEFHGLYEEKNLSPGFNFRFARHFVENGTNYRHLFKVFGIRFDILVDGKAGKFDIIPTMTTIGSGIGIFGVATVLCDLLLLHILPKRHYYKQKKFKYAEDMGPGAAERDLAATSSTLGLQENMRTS

Compound	IC50 [7] [µM]	half-life [8] [h]	clearance [9] [L/h/kg]	IC50 [10] [µM]	bioavailability [11] [%]	fraction unbound [12]	IC50 [13] [µM]	Cp(f) [14] [µM]	AUC [15] [µg·h/mL]	IC50 [16] [µM]	IC50 [17] [µM]	Cmax [18] [µg/mL]	IC50 [19] [µM]	solubility [20] [mg/mL]	fraction unbound [21]	IC50 [22] [µM]	IC50 [23] [µM]	IC50 [24] [µM]	ED50 [25] [mg/kg]	solubility [26] [mg/mL]	also measured
Cc1ccc(Cn2c(Nc3ccc(OC(C)C)c(Cl)c3)nc(=O)n(CCC(=O)O)c2=O)cc1	0.0061	1.6	0.162																		concentration at 3 h [1]: 1.32 µM; concentration at 3 h [2]: 7.84 µM; Activity [3]: 23%; Activity [4]: 40%; Activity [5]: 11%; concentration at 3 h [6]: 2.65 µM
C[C@@H](Cn1c(=O)[nH]/c(=N\c2ccc(Oc3ccsn3)cc2)n(Cc2ccc(Cl)cc2)c1=O)C(=O)O	0.0077	4.4	0.132	> 20	87.6	0.012	> 30	0.671	13.7	> 20	> 20	1.61	> 20	0.65 (≈ 1260 µM)	0.012	> 30	> 30	> 20	0.4	0.0008 (≈ 1.56 µM)	bioavailability [27]: 60%; IC50 [28]: > 30 µM
C[C@@H](Cn1c(=O)[nH]/c(=N\c2ccc(Oc3ccnc(F)c3)cc2)n(Cc2ccc(Cl)cc2)c1=O)C(=O)O	0.0038	4.3	0.354	> 20	43.2	0.013	> 30	0.738	4.02	> 20	> 20	0.597	> 20	0.212 (≈ 403 µM)	0.013	> 30	> 30	> 20	0.3	0.0022 (≈ 4.18 µM)	bioavailability [27]: 46.9%; IC50 [28]: > 30 µM

— ChEMBL document CHEMBL5030545, “Discovery of clinical candidate Sivopixant (S-600918): Lead optimization of dioxotriazine derivatives as selective P2X3 receptor antagonists” (Bioorg Med Chem Lett, 2021)
